PubChem BioAssay (NCI)
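All cell lines were grown in 96-well plates and treated with compound for 48 hours. GI50 marks 50% less growth. TGI marks complete inhibition of growth.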

Assays:
Assay in all cases: NCI anticancer screen, dose series, 48 h
[1] = test system: NCI-H23 lung
[2] = test system: NCI-H460 lung
[3] = test system: RPMI-8226 leukemia
[4] = test system: CCRF-CEM leukemia
[5] = test system: SNB-19 CNS
[6] = test system: SN12C renal
[7] = test system: TK-10 renal
[8] = test system: SK-MEL-28 melanoma
[9] = test system: MOLT-4 leukemia
[10] = test system: OVCAR-4 ovarian
[11] = test system: UACC-62 melanoma

Row | SMILES | TGI [1] [µM] | TGI [2] [µM] | TGI [3] [µM] | TGI [4] [µM] | TGI [5] [µM] | TGI [6] [µM] | TGI [7] [µM] | TGI [8] [µM] | TGI [9] [µM] | TGI [10] [µM] | TGI [11] [µM] | GI50 [1] [µM] | GI50 [2] [µM] | GI50 [3] [µM] | GI50 [4] [µM] | GI50 [5] [µM] | GI50 [6] [µM] | GI50 [9] [µM] | GI50 [10] [µM] | GI50 [11] [µM]
1 | CCC(=O)NC(Nc1cccc(F)c1)(C(F)(F)F)C(F)(F)F | > 100 | > 100 | > 100 | > 100 | > 100 | > 100 | > 100 | > 100 | > 100 | > 100 | > 100 | – | – | – | – | – | – | – | – | –
2 | c1ccc(N=c2nc(N3CCOCC3)ss2)cc1 | > 100 | 34.7 | – | – | > 100 | 28.5 | > 100 | 32.1 | 37.1 | 29.1 | 27.5 | – | – | – | – | – | – | – | – | –
3 | Fc1ccc(-c2nn3c(-c4cc(C(F)(F)F)cc(C(F)(F)F)c4)nnc3s2)cc1 | > 50 | > 50 | > 50 | > 50 | > 50 | > 50 | – | – | > 50 | > 50 | > 50 | 3.05 | 1.62 | > 50 | > 50 | 1.57 | 2.51 | > 50 | 1.48 | > 50
4 | CC(=O)O[C@H]1C=CC(=O)C(C)CC1C (some centres undefined) | > 100 | > 100 | – | > 100 | > 100 | > 100 | > 100 | > 100 | > 100 | > 100 | > 100 | – | – | – | – | – | – | – | – | –
5 | CCCC(N)C(=O)c1ccccc1 (centres undefined) | > 100 | > 100 | > 100 | > 100 | > 100 | > 100 | > 100 | > 100 | – | > 100 | > 100 | – | – | – | – | – | – | – | – | –
6 | COC1=CC(=O)c2c(cc(COP(=O)(OCC3OC(n4cc(F)c(=O)[nH]c4=O)CC3O)N(C)CCCCCl)n2C)C1=O (centres undefined) | 17.7 | 14 | > 19.8 | > 100 | > 70.5 | 1.84 | > 100 | > 68.8 | > 54 | > 34.8 | 1.79 | – | – | – | – | – | – | – | – | –
7 | Cc1cc(C)nc(SCC(=O)OC2CC(C)CCC2C(C)C)n1 (centres undefined) | > 100 | 35.8 | 41.3 | 42.5 | 45.9 | 37.2 | 89.9 | > 100 | 38.6 | 50.6 | 33.9 | – | – | – | – | – | – | – | – | –
8 | CN1C[C@H]2[C@@H](C1=O)[C@H](c1ccccc1)ON2C | > 100 | > 100 | > 100 | > 100 | > 100 | > 100 | > 100 | > 100 | > 100 | > 100 | – | – | – | – | – | – | – | – | – | –
9 | O=C(Nc1c(C(=O)NC2CCCCC2)[nH]c(=O)[nH]c1=O)c1ccc(Cl)cc1 | – | > 100 | > 100 | > 100 | – | > 100 | > 100 | > 100 | > 100 | > 100 | > 100 | – | – | – | – | – | – | – | – | –
10 | CC(=O)OCC1=C(C(=O)O)C(c2ccc3c(c2)OCO3)c2cc3c(cc2O1)OCO3 (centres undefined) | > 100 | > 100 | > 100 | > 100 | > 100 | > 100 | > 100 | > 100 | > 100 | > 100 | > 100 | – | – | – | – | – | – | – | – | –
11 | Cc1cc(C)c2c(c1)C1=NCCN1C2(O)c1ccc(Cl)cc1 (centres undefined) | 33.1 | 29.3 | 33.2 | 54.7 | 31.7 | 30.3 | 15.5 | 31 | > 100 | 29.7 | 29.4 | – | – | – | – | – | – | – | – | –
12 | NC1(C(=O)O)CCc2ccc(N(CCCl)CCCl)cc2C1 (centres undefined) | > 100 | > 100 | > 100 | > 100 | > 100 | > 100 | – | > 100 | 87 | > 100 | > 100 | – | – | – | – | – | – | – | – | –
13 | N=C(N)SCc1cc(Cl)cc(Cl)c1O | 40.4 | 36.2 | 47.5 | 35.6 | 56.8 | 36.6 | 35.4 | 46.4 | 50.8 | 51.6 | 34 | – | – | – | – | – | – | – | – | –
14 | CCCCCCCNC(P(=O)(O)O)P(=O)(O)O | > 100 | > 100 | > 100 | > 100 | > 100 | > 100 | > 100 | > 100 | > 100 | > 100 | > 100 | – | – | – | – | – | – | – | – | –
15 | Cc1ccc(C2N=C(N)NC3=C2CCOc2c3ccc3ccccc23)cc1 (centres undefined) | > 79.5 | > 100 | > 63.2 | 3.71 | > 100 | > 72 | > 80.3 | > 100 | > 74.8 | > 83.7 | 57.5 | – | – | – | – | – | – | – | – | –
16 | O=C(Nc1ccc(Sc2ccc(N=Nc3c(O)c(S(=O)(=O)O)cc4cc(S(=O)(=O)O)ccc34)cc2)cc1)c1ccc(N=Nc2c(O)ccc3c(S(=O)(=O)O)cc(S(=O)(=O)O)cc23)cc1 | > 100 | > 100 | 73.4 | 77.4 | > 100 | > 100 | > 100 | > 100 | 52.1 | > 100 | 49.7 | – | – | – | – | – | – | – | – | –
17 | N#CC(Nc1cccc(C(F)(F)F)c1)c1ccccc1C(F)(F)F (centres undefined) | 27.6 | 29.9 | – | 59.7 | 31.9 | 17.9 | 27.9 | 31.8 | 40.5 | 15.2 | 31.4 | – | – | – | – | – | – | – | – | –
18 | Clc1ccc(CNc2nc(Cl)c3[nH]cnc3n2)cc1Cl | > 100 | 73.3 | – | > 100 | > 100 | > 100 | 84.7 | – | > 100 | > 100 | > 100 | – | – | – | – | – | – | – | – | –
19 | O=C(O)C1CCC(=O)N1S(=O)(=O)c1ccccc1 (centres undefined) | > 100 | > 100 | > 100 | > 100 | > 100 | > 100 | – | > 100 | > 100 | > 100 | > 100 | – | – | – | – | – | – | – | – | –
